{
  "source": "PubChem BioAssay (NCI)",
  "assay_in_all_cases": "DTP human tumour cell line panel, 48 h",
  "key": {"NCI-H226 lung": {"tested_on": "NCI-H226 lung"}, "NCI-H23 lung": {"tested_on": "NCI-H23 lung"}, "NCI-H460 lung": {"tested_on": "NCI-H460 lung"}, "NCI-H522 lung": {"tested_on": "NCI-H522 lung"}, "NCI/ADR-RES ovarian": {"tested_on": "NCI/ADR-RES ovarian"}, "OVCAR-3 ovarian": {"tested_on": "OVCAR-3 ovarian"}, "OVCAR-4 ovarian": {"tested_on": "OVCAR-4 ovarian"}, "OVCAR-5 ovarian": {"tested_on": "OVCAR-5 ovarian"}, "OVCAR-8 ovarian": {"tested_on": "OVCAR-8 ovarian"}, "PC-3 prostate": {"tested_on": "PC-3 prostate"}, "RPMI-8226 leukemia": {"tested_on": "RPMI-8226 leukemia"}, "RXF 393 renal": {"tested_on": "RXF 393 renal"}, "SF-268 CNS": {"tested_on": "SF-268 CNS"}, "SF-295 CNS": {"tested_on": "SF-295 CNS"}, "SF-539 CNS": {"tested_on": "SF-539 CNS"}, "SK-MEL-2 melanoma": {"tested_on": "SK-MEL-2 melanoma"}, "SK-MEL-28 melanoma": {"tested_on": "SK-MEL-28 melanoma"}, "SK-MEL-5 melanoma": {"tested_on": "SK-MEL-5 melanoma"}, "SK-OV-3 ovarian": {"tested_on": "SK-OV-3 ovarian"}, "SN12C renal": {"tested_on": "SN12C renal"}, "SNB-19 CNS": {"tested_on": "SNB-19 CNS"}, "SNB-75 CNS": {"tested_on": "SNB-75 CNS"}, "SR leukemia": {"tested_on": "SR leukemia"}, "SW-620 colon": {"tested_on": "SW-620 colon"}, "T-47D breast": {"tested_on": "T-47D breast"}, "TK-10 renal": {"tested_on": "TK-10 renal"}, "U251 CNS": {"tested_on": "U251 CNS"}, "UACC-257 melanoma": {"tested_on": "UACC-257 melanoma"}, "UACC-62 melanoma": {"tested_on": "UACC-62 melanoma"}, "UO-31 renal": {"tested_on": "UO-31 renal"}},
  "note": "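48-hour exposure; five concentrations; linearly interpolated endpoints. GI50 is the concentration that inhibits growth by half. TGI is the concentration that stops growth completely.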",
  "data": [
    {"compound": "CSc1nc(-c2cccc(C)c2)c2cc(-c3ccccc3)n(C)c2n1", "values": [
      {"measurement": "TGI", "setting": "NCI-H226 lung", "value": 50, "unit": "µM"},
      {"measurement": "GI50", "setting": "NCI-H23 lung", "value": 12.2, "unit": "µM"},
      {"measurement": "TGI", "setting": "NCI-H23 lung", "value": 68, "unit": "µM"},
      {"measurement": "GI50", "setting": "NCI-H460 lung", "value": 3.98, "unit": "µM"},
      {"measurement": "TGI", "setting": "NCI-H460 lung", "value": 19.1, "unit": "µM"},
      {"measurement": "GI50", "setting": "NCI-H522 lung", "value": 3.41, "unit": "µM"},
      {"measurement": "TGI", "setting": "NCI-H522 lung", "value": 17.2, "unit": "µM"},
      {"measurement": "GI50", "setting": "NCI/ADR-RES ovarian", "value": 3.58, "unit": "µM"},
      {"measurement": "TGI", "setting": "NCI/ADR-RES ovarian", "value": 30.9, "unit": "µM"},
      {"measurement": "GI50", "setting": "OVCAR-3 ovarian", "value": 4.31, "unit": "µM"},
      {"measurement": "TGI", "setting": "OVCAR-3 ovarian", "value": 30.7, "unit": "µM"},
      {"measurement": "GI50", "setting": "OVCAR-4 ovarian", "value": 20.5, "unit": "µM"},
      {"measurement": "TGI", "setting": "OVCAR-4 ovarian", "value": "> 100", "unit": "µM"},
      {"measurement": "GI50", "setting": "OVCAR-5 ovarian", "value": 18.6, "unit": "µM"},
      {"measurement": "TGI", "setting": "OVCAR-5 ovarian", "value": "> 100", "unit": "µM"},
      {"measurement": "GI50", "setting": "OVCAR-8 ovarian", "value": 16.3, "unit": "µM"},
      {"measurement": "TGI", "setting": "OVCAR-8 ovarian", "value": "> 100", "unit": "µM"},
      {"measurement": "GI50", "setting": "PC-3 prostate", "value": 7.9, "unit": "µM"},
      {"measurement": "TGI", "setting": "PC-3 prostate", "value": "> 100", "unit": "µM"},
      {"measurement": "GI50", "setting": "RPMI-8226 leukemia", "value": 4.82, "unit": "µM"},
      {"measurement": "TGI", "setting": "RPMI-8226 leukemia", "value": 37.8, "unit": "µM"},
      {"measurement": "GI50", "setting": "RXF 393 renal", "value": 7.91, "unit": "µM"},
      {"measurement": "TGI", "setting": "RXF 393 renal", "value": 47, "unit": "µM"},
      {"measurement": "GI50", "setting": "SF-268 CNS", "value": 11.2, "unit": "µM"},
      {"measurement": "TGI", "setting": "SF-268 CNS", "value": 51.1, "unit": "µM"},
      {"measurement": "GI50", "setting": "SF-295 CNS", "value": 5.06, "unit": "µM"},
      {"measurement": "TGI", "setting": "SF-295 CNS", "value": 18.2, "unit": "µM"},
      {"measurement": "GI50", "setting": "SF-539 CNS", "value": 6.35, "unit": "µM"},
      {"measurement": "TGI", "setting": "SF-539 CNS", "value": 21.8, "unit": "µM"},
      {"measurement": "GI50", "setting": "SK-MEL-2 melanoma", "value": 3.62, "unit": "µM"},
      {"measurement": "TGI", "setting": "SK-MEL-2 melanoma", "value": 17.5, "unit": "µM"},
      {"measurement": "GI50", "setting": "SK-MEL-28 melanoma", "value": 12.2, "unit": "µM"},
      {"measurement": "TGI", "setting": "SK-MEL-28 melanoma", "value": 97.7, "unit": "µM"},
      {"measurement": "GI50", "setting": "SK-MEL-5 melanoma", "value": 3.59, "unit": "µM"},
      {"measurement": "TGI", "setting": "SK-MEL-5 melanoma", "value": 12.8, "unit": "µM"},
      {"measurement": "GI50", "setting": "SK-OV-3 ovarian", "value": 11.2, "unit": "µM"},
      {"measurement": "TGI", "setting": "SK-OV-3 ovarian", "value": 52.1, "unit": "µM"},
      {"measurement": "GI50", "setting": "SN12C renal", "value": 10.7, "unit": "µM"},
      {"measurement": "TGI", "setting": "SN12C renal", "value": 44.7, "unit": "µM"},
      {"measurement": "GI50", "setting": "SNB-19 CNS", "value": 14.6, "unit": "µM"},
      {"measurement": "TGI", "setting": "SNB-19 CNS", "value": 93.6, "unit": "µM"},
      {"measurement": "GI50", "setting": "SNB-75 CNS", "value": 3.17, "unit": "µM"},
      {"measurement": "TGI", "setting": "SNB-75 CNS", "value": 27.4, "unit": "µM"},
      {"measurement": "GI50", "setting": "SR leukemia", "value": 3.17, "unit": "µM"},
      {"measurement": "TGI", "setting": "SR leukemia", "value": "> 100", "unit": "µM"},
      {"measurement": "GI50", "setting": "SW-620 colon", "value": 4.87, "unit": "µM"},
      {"measurement": "TGI", "setting": "SW-620 colon", "value": "> 100", "unit": "µM"},
      {"measurement": "GI50", "setting": "T-47D breast", "value": 4.59, "unit": "µM"},
      {"measurement": "TGI", "setting": "T-47D breast", "value": 41.3, "unit": "µM"},
      {"measurement": "GI50", "setting": "TK-10 renal", "value": 28.8, "unit": "µM"},
      {"measurement": "TGI", "setting": "TK-10 renal", "value": 91.9, "unit": "µM"},
      {"measurement": "GI50", "setting": "U251 CNS", "value": 4.65, "unit": "µM"},
      {"measurement": "TGI", "setting": "U251 CNS", "value": 33.8, "unit": "µM"},
      {"measurement": "GI50", "setting": "UACC-257 melanoma", "value": 16.7, "unit": "µM"},
      {"measurement": "TGI", "setting": "UACC-257 melanoma", "value": 50.4, "unit": "µM"},
      {"measurement": "GI50", "setting": "UACC-62 melanoma", "value": 3.99, "unit": "µM"},
      {"measurement": "TGI", "setting": "UACC-62 melanoma", "value": 17.9, "unit": "µM"},
      {"measurement": "GI50", "setting": "UO-31 renal", "value": 6.78, "unit": "µM"},
      {"measurement": "TGI", "setting": "UO-31 renal", "value": 67, "unit": "µM"}
    ]}
  ]
}
